Assay results taken from patent publication EP1233943B1, “IONIZABLE INDOLINONE DERIVATIVES AND THEIR USE AS PTK LIGANDS” (Sugen, Inc., priority 1999, dated 2001).
In brackets after ≈: the same amount, converted by molar mass. Read-outs that look alike come from different tables or passages of the source.

Columns and labels:
[1] = in vivo; details: mouse, in vivo, ip, 75 mg/kg/day
Procedure: (§1) In most experiments, compound was administered daily.
(§2) Tumor growth was measured using venier calipers.

[2] = test system: A375 (human melanoma); test: in vivo; details: 75 mg/kg/d IP in DMSO, dosed 3x/week; day 29; BALB/c nu/nu mice
Procedure: as §1, §2

[3] = test system: SF763T (human glioma); details: 75 mg/kg/d IP daily in DMSO; day 21; BALB/c nu/nu mice
Procedure: (§3) SF763T, SF767T, and SKOV3TP5 were derived by implanting the parental cells SC into BALB/c nu/nu mice.
(§4) For the SF763T and SF767T cell lines, two to five mL of appropriate medium was added to the slurry and the tumor pieces were further mechanically teased apart. […] Medium was changed every two to three days. After three to five passages, the antibiotic supplements were removed and the cells maintained in antibiotic-free medium.
as §1, §2

[4] = test system: SF767T (human glioma); details: 75 mg/kg/d IP daily in DMSO; day 21; BALB/c nu/nu mice
Procedure: as §3, §4, §1, §2

[5] = test system: SKOV3TP5 (human ovarian); details: 75 mg/kg/d IP daily in DMSO; day 25; BALB/c nu/nu mice
Procedure: as §3
For the SKOV3TP5 cells, fragments of resected tumors were injected SC into mice for in vivo passaging. This procedure was repeated five times before cells were returned to culture as described above.
as §1, §2

[6] = Subcutaneous xenograft model in athymic mice, A431; format: in vivo, human; details: mouse, in vivo, 100 mg/kg/day; 100 mg/kg/d IP daily in DMSO
Procedure: as §1, §2

[7] = test system: A431 (human epidermal); test: Subcutaneous xenograft model in athymic mice, A431; format: in vivo; details: 100 mg/kg/d IP daily in DMSO; day 24; BALB/c nu/nu mice
Procedure: as §1, §2

[8] = in vivo; details: mouse, in vivo, ip, 75 mg/kg/day; remark: listed apart in the source
Procedure: as §1, §2

[9] = test system: EpH4-VEGF1 (murine epithelial); test: in vivo; details: 75 mg/kg/d IP daily in DMSO; day 18; BALB/c nu/nu mice
Procedure: as §1, §2

[10] = Oral bioavailability of formulations in beagle dogs; format: in vivo; details: higher doses in fasted conditions
Procedure: The formulation described below enhance the oral bioaviability of COMPOUND IV in beagle dogs, a preclinical absorption model.
Both formulations contain 50 mg/gm of Pluronic F-68. The formulation at 50 mg/gm of COMPOUND IV contains 900 mgs of sesame oil and the one that contains 250 mg/gm of COMPOUND IV contains 700 mgs of sesame oil.
AUC refers to the area under the curve of the plasma concentration time curve and represents oral bioavilability (BA). Higher AUC indicates higher BA.

[11] = test system: C6 (rat glioma)
Procedure: (§5) C6 cells were cultured in Ham's F-10 supplemented with 5% FBS and 2mM L-glutamine. […] All cell cultures were maintained at 37°C in a humidified atmosphere of 5-10% CO2.
(§6) Tumor cell lines (0.6 - 10 x 10^6 cells/animal; n = 8-20 animals/group) were implanted SC in the hindflank region of 8-12 week old BALB/c nu/nu female mice.
(§7) Tumor growth was measured using venier calipers. Tumor volumes were calculated as the product of length x width x height. Statistical analysis was carried out using Student's t-test.
(§8) C6 cells were implanted SC into athymic mice on day zero. […] On Day 16, all Group 3 animals were humanely sacrificed due to tumor burden (mean tumor diameter approximately 1300 mm^3), and the growth of tumors in Groups 1 and 2 was monitored until the mean tumor burden of each group reached 1300 mm^3.
(§9) Beginning one day post-implantation, compound (200 mg/kg/day in solution in a Labrasol®-containing vehicle) was administered to mice PO. Tumor growth was measured using venier calipers and tumor volumes were calculated as the product of length x width x height.

[12] = in vivo
Procedure: as §5, §6, §7, §8, §9

[13] = physchem
Procedure: The solution was filtered, appropriate dilutions made and the concentration of the compound in the supernatant was analyzed by a reverse phase HPLC method.

## Cc1[nH]c(C=C2C(=O)Nc3ccccc32)c(C)c1CCC(=O)O [Example 1, 3-[2,4-dimethyl-5-(2-oxo-1,2-dihydro-indol-3-ylidenemethyl)-1H-pyrrol-3-yl]-propionic acid]
[1]
  mortality: 0%
[2]
  % Inhibition @ (day): 56(29) %
[3]
  % Inhibition @ (day): 48 (21) %
[4]
  % Inhibition @ (day): 46 (21) %
[5]
  % Inhibition @ (day): 9 (25) %
[6]
  mortality: 12.5%
[7]
  % Inhibition @ (day): 84 (24) %
[8]
  mortality: 0%
[9]
  % Inhibition @ (day): 34 (18) %
[10]
  bioavailability: low bioavailability
[11]; 100 mg/kg/d IP daily in DMSO, day 18, BALB/c nu/nu mice
  % Inhibition @ (day): 65 (18) %
[11]; IP 25 mg/kg Daily X 5, day 18
  % Inhibition (at day): 1(18) %
[11]; IP 50 mg/kg Daily X 5, day 18
  % Inhibition (at day): 68 (18) %
[11]; IP 50 mg/kg Daily, day 18
  % Inhibition (at day): 27 (18) %
[11]; IP 50 mg/kg Three times weekly, day 18
  % Inhibition (at day): 25 (18) %
[11]; IP 50 mg/kg Twice weekly, day 19
  % Inhibition (at day): 36 (19) %
[11]; IP 75 mg/kg Daily X 5, day 18
  % Inhibition (at day): 54 (18) %
[11]; IP 75 mg/kg Daily, day 18
  % Inhibition (at day): 53 (18) %
[11]; IP 75 mg/kg Three times weekly, day 18
  % Inhibition (at day): 29 (18) %
[11]; IP 75 mg/kg Twice weekly, day 19
  % Inhibition (at day): 26 (19) %
[11]; IP 75 mg/kg/day from Day 7, when measurable tumors were present
  efficacy on established tumors: efficacious
[11]; IP 100 mg/kg Daily X 5 followed by Once weekly, day 15
  % Inhibition (at day): 42(15) %
[11]; IP 100 mg/kg Daily, day 18
  % Inhibition (at day): 65 (18) %
[11]; IP 100 mg/kg Three times weekly, day 18
  % Inhibition (at day): 40 (18) %
[11]; IP 100 mg/kg Twice weekly, day 19
  % Inhibition (at day): 38 (19) %
[11]; IP 100 mg/kg twice weekly or three times weekly, statistically significant
  tumor growth inhibition: approximately 40%
[11]; IP 150 mg/kg Daily X 5 followed by once weekly, day 15
  % Inhibition (at day): 51 (15) %
[11]; PO 200 mg/kg/day in a Labrasol-containing vehicle, Day 18 post-implantation, compared to vehicle-treated animals
  tumor growth inhibited: 82%
[12]; ip, 100 mg/kg/day
  mortality: 12.5%
[12]; po, 200 mg/kg/day
  mortality: 10%
[13]; 2% polysorbate-80
  solubility: < 13 mg/mL
[13]; 30% peg 300 in buffer, pH 8.2, organic solvent or mixture
  solubility: 32 mg/mL (≈ 103 mM)
